Molecules are shown by their SMILES.

Here are results for 19 compounds from US10611740B2, “Aryl dihydro-2H-benzo[b][1,4]oxazine sulfonamide and related compounds for use as agonists of RORγ and the treatment of disease” (Lycera Corporation, priority 2015, dated 2020).

For the assay, the target named is T1, RORγ-LBD (Homo sapiens, UniProt P51449).
T1 construct: made in house; host or cells: SF9 cells (baculovirus)
T1 sequence (P51449 269-508 limits assumed): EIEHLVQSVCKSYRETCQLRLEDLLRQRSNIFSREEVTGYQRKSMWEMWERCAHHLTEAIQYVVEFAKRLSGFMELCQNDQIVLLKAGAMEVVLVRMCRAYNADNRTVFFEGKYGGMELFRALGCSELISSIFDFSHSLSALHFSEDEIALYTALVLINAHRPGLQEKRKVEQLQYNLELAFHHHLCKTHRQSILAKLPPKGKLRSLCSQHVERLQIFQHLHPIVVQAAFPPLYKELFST
Description: RORγ-Ligand Binding Domain (LBD) TR-FRET Assay.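 As to TR-FRET Assay Max Response: 665/615 nm ratio relative to signal without ursolic acid or compound set at 100.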 The format is biochemical. The method, then:
Assay procedures and results are described below.
HIS-tagged RORγ-LBD protein was expressed in SF9 cells using a baculovirus expression system. The lysate was diluted in assay buffer (50 mM Tris pH 7.0, 50 mM KCl, 1 mM EDTA, 0.1 mM DTT, 0.01% BSA) to obtain RORγ-LBD final concentration of ˜3 nM in a 384-well assay plate (need to titrate for each batch of protein).
A stock of biotinylated-LXXLL peptide from coactivator SRC1 (Biotin-[…]) was prepared in assay buffer and added to each well (200 nM final concentration). […] RORγ antagonist ursolic acid was also included at a final concentration of 2 μM. Compounds were diluted in DMSO and further diluted in assay buffer with a final DMSO concentration at 1%.

As to `O=C(O)CC[C@H]1CN(S(=O)(=O)c2cccc(C(F)(F)F)c2)c2cc(-c3ccc(Cl)cc3)ccc2O1` [Compound 2B, (S)-3-(6-(4-chlorophenyl)-4-((3-(trifluoromethyl)phenyl)-sulfonyl)-3,4-dihydro-2H-benzo[b][1,4]oxazin-2-yl)propanoic acid], the 50% effective concentration (EC50) was below 500 nM and the “TR-FRET Assay Max Response” value was “** (The symbol “**” indicates a value in the range of greater than 90 to 150)”.

Consider `O=C(O)CC[C@@H]1CN(S(=O)(=O)c2cccc(C(F)(F)F)c2)c2cc(-c3cc(F)ccc3F)ccc2O1` [Compound 2BP, (R)-3-(6-(2,5-difluorophenyl)-4-((3-(trifluoromethyl)phenyl)-sulfonyl)-3,4-dihydro-2H-benzo[b][1,4]oxazin-2-yl)propanoic acid], for which the concentration giving a half-maximal response (EC50) is below 500 nM and the “TR-FRET Assay Max Response” value is given as “*** (The symbol “***” indicates a value in the range of greater than 150 to 200)”. For the compound `O=C(O)CC[C@H]1CN(S(=O)(=O)c2cccc(C(F)(F)F)c2)c2cc(-c3ccc(F)cc3F)ccc2O1` [Compound 2D, (S)-3-(6-(2,4-difluorophenyl)-4-((3-(trifluoromethyl)phenyl)-sulfonyl)-3,4-dihydro-2H-benzo[b][1,4]oxazin-2-yl)propanoic acid], the concentration for a half-maximal effect (EC50) was below 500 nM and the “TR-FRET Assay Max Response” value is “** (The symbol “**” indicates a value in the range of greater than 90 to 150)”. Turning to `O=C(O)CC[C@H]1CN(S(=O)(=O)c2cccc(C(F)(F)F)c2)c2cc(-c3ccc(F)c(F)c3)ccc2O1` [Compound 2F, (S)-3-(6-(3,4-difluorophenyl)-4-((3-(trifluoromethyl)phenyl)-sulfonyl)-3,4-dihydro-2H-benzo[b][1,4]oxazin-2-yl)propanoic acid], the concentration for a half-maximal effect (EC50) was below 500 nM and the “TR-FRET Assay Max Response” value is reported as “** (The symbol “**” indicates a value in the range of greater than 90 to 150)”. Consider `O=C(O)CC[C@H]1CN(S(=O)(=O)c2cccc(C(F)(F)F)c2)c2cc(-c3cccc(-c4ccccc4)n3)ccc2O1` [Compound 4AI, (S)-3-(6-(6-phenylpyridin-2-yl)-4-((3-(trifluoromethyl)-phenyl)sulfonyl)-3,4-dihydro-2H-benzo[b][1,4]oxazin-2-yl)propanoic acid], for which the EC50 was below 500 nM and the “TR-FRET Assay Max Response” value is recorded as “** (The symbol “**” indicates a value in the range of greater than 90 to 150)”.

With `CN(C)c1cc(C(F)(F)F)cc(-c2ccc3c(c2)N(S(=O)(=O)c2cccc(C(F)(F)F)c2)C[C@H](CCC(=O)O)O3)n1` [Compound 4AT, (S)-3-(6-(6-(dimethylamino)-4-(trifluoromethyl)pyridin-2-yl)-4-((3-(trifluoromethyl)phenyl)-sulfonyl)-3,4-dihydro-2H-benzo[b][1,4]oxazin-2-yl)propanoic acid], the 50% effective concentration (EC50) is 500 to 5000 nM and the “TR-FRET Assay Max Response” value is reported as “*** (The symbol “***” indicates a value in the range of greater than 150 to 200)”. Take `CN(C)c1nccc(-c2ccc3c(c2)N(S(=O)(=O)c2cccc(C(F)(F)F)c2)C[C@H](CCC(=O)O)O3)n1` [Compound 4AV, (S)-3-(6-(2-(dimethylamino)-pyrimidin-4-yl)-4-((3-(trifluoromethyl)phenyl)-sulfonyl)-3,4-dihydro-2H-benzo[b][1,4]oxazin-2-yl)propanoic acid]: the 50% effective concentration (EC50) is 500 to 5000 nM and the “TR-FRET Assay Max Response” value was “*** (The symbol “***” indicates a value in the range of greater than 150 to 200)”. Consider `O=C(O)CC[C@H]1CN(S(=O)(=O)c2cccc(C(F)(F)F)c2)c2cc(-c3ccnc(Cl)n3)ccc2O1` [Compound 4AX, (S)-3-(6-(2-chloropyrimidin-4-yl)-4-((3-(trifluoromethyl)-phenyl)sulfonyl)-3,4-dihydro-2H-benzo[b][1,4]oxazin-2-yl)propanoic acid], for which the EC50 lay in the range of 500 to 5000 nM and the “TR-FRET Assay Max Response” value is “** (The symbol “**” indicates a value in the range of greater than 90 to 150)”. The compound `O=C(O)CC[C@H]1CN(S(=O)(=O)c2cccc(C(F)(F)F)c2)c2cc(-c3cccc(C(F)(F)F)n3)c(Cl)cc2O1` [Compound 22F, (S)-3-(7-chloro-4-((3-(trifluoromethyl)phenyl)sulfonyl)-6-(6-(trifluoromethyl)pyridin-2-yl)-3,4-dihydro-2H-benzo[b][1,4]-oxazin-2-yl)propanoic acid] came in with an EC50 above 10000 nM.

Regarding `O=C(O)CC[C@H]1CN(S(=O)(=O)c2cccc(C(F)(F)F)c2)c2cc(-c3cc(F)cc(OC(F)F)c3)cc(F)c2O1` [Compound 22M, (S)-3-(6-(3-(difluoromethoxy)-5-fluorophenyl)-8-fluoro-4-((3-(trifluoromethyl)phenyl)sulfonyl)-3,4-dihydro-2H-benzo[b][1,4]-oxazin-2-yl)propanoic acid], the concentration for a half-maximal effect (EC50) was below 500 nM and the “TR-FRET Assay Max Response” value is recorded as “*** (The symbol “***” indicates a value in the range of greater than 150 to 200)”.

`O=C(O)CC[C@H]1CN(S(=O)(=O)c2cccc(C(F)(F)F)c2)c2cc(-c3cc(F)cc(OC(F)F)c3)c(Cl)cc2O1` [Compound 22N, (S)-3-(7-chloro-6-(3-(difluoro-methoxy)-5-fluorophenyl)-4-((3-(trifluoromethyl)phenyl)sulfonyl)-3,4-dihydro-2H-benzo[b][1,4]-oxazin-2-yl)propanoic acid] had an EC50 below 500 nM.

In the case of `O=C(O)CNC(=O)CC[C@H]1CN(S(=O)(=O)c2cccc(C(F)(F)F)c2)c2cc(-c3cccc(F)c3F)ccc2O1` [Compound 23O, (S)-(3-(6-(2,3-difluorophenyl)-4-((3-(trifluoromethyl)-phenyl)sulfonyl)-3,4-dihydro-2H-benzo[b][1,4]oxazin-2-yl)propanoyl)glycine], the EC50 is below 500 nM and the “TR-FRET Assay Max Response” value is on record as “**** (The symbol “****” indicates a value greater than 200)”. `O=C(NCC[C@H]1CN(S(=O)(=O)c2cccc(C(F)(F)F)c2)c2cc(-c3cc(F)ccc3F)ccc2O1)NC[C@H](O)C(=O)O` [Compound 23Z, (S)-3-(3-(2-((S)-6-(2,5-difluorophenyl)-4-((3-(trifluoro-methyl)phenyl)sulfonyl)-3,4-dihydro-2H-benzo[b][1,4]oxazin-2-yl)ethyl)ureido)-2-hydroxypropanoic acid]: the EC50 is below 500 nM and the “TR-FRET Assay Max Response” value was “**** (The symbol “****” indicates a value greater than 200)”. The like results for `Cc1coc(-c2ccc3c(c2)N(S(=O)(=O)c2cccc(C(F)(F)F)c2)C[C@H](CCC(=O)O)O3)n1` [Compound 25, (S)-3-(6-(4-methyloxazol-2-yl)-4-((3-(trifluoromethyl)phenyl)sulfonyl)-3,4-dihydro-2H-benzo[b][1,4]oxazin-2-yl)propanoic acid] were, in that order, 500 to 5000 nM and “** (The symbol “**” indicates a value in the range of greater than 90 to 150)”. With `CC(C)(C(=O)NC[C@H]1CN(S(=O)(=O)c2cccc(C(F)(F)F)c2)c2cc(-c3cccc(F)c3Cl)ccc2O1)C(F)(F)F` [Compound 30BJ, (S)-N-((6-(2-chloro-3-fluoro-phenyl)-4-((3-(trifluoromethyl)-phenyl)sulfonyl)-3,4-dihydro-2H-benzo[b][1,4]oxazin-2-yl)methyl)-3,3,3-trifluoro-2,2-dimethylpropanamide], the EC50 is 500 to 5000 nM and the “TR-FRET Assay Max Response” value was “*** (The symbol “***” indicates a value in the range of greater than 150 to 200)”. `NS(=O)(=O)CCC(=O)NC[C@H]1CN(S(=O)(=O)c2cccc(C(F)(F)F)c2)c2cc(-c3cccc(F)c3Cl)ccc2O1` [Compound 30BK, (S)-N-((6-(2-chloro-3-fluoro-phenyl)-4-((3-(trifluoromethyl)-phenyl)sulfonyl)-3,4-dihydro-2H-benzo[b][1,4]oxazin-2-yl)methyl)-3-sulfamoylpropanamide]: the EC50 was below 500 nM and the “TR-FRET Assay Max Response” value is “*** (The symbol “***” indicates a value in the range of greater than 150 to 200)”. The like results for `N#CC1(C(=O)NC[C@H]2CN(S(=O)(=O)c3cccc(C(F)(F)F)c3)c3cc(-c4cccc(F)c4Cl)ccc3O2)CC1` [Compound 30BL, (S)-N-((6-(2-chloro-3-fluoro-phenyl)-4-((3-(trifluoromethyl)-phenyl)sulfonyl)-3,4-dihydro-2H-benzo[b][1,4]oxazin-2-yl)methyl)-1-cyanocyclo-propane-1-carboxamide] were, in that order, below 500 nM and “*** (The symbol “***” indicates a value in the range of greater than 150 to 200)”. The like results for `O=C(NC[C@H]1CN(S(=O)(=O)c2cccc(C(F)(F)F)c2)c2cc(-c3cccc(F)c3Cl)ccc2O1)C1(F)CC1` [Compound 30BM, (S)-N-((6-(2-chloro-3-fluoro-phenyl)-4-((3-(trifluoromethyl)-phenyl)sulfonyl)-3,4-dihydro-2H-benzo[b][1,4]oxazin-2-yl)methyl)-1-fluorocyclo-propane-1-carboxamide] were, in that order, below 500 nM and “*** (The symbol “***” indicates a value in the range of greater than 150 to 200)”. Turning to `CC(C)(C(=O)NC[C@H]1CN(S(=O)(=O)c2cccc(C(F)(F)F)c2)c2cc(-c3cc(F)cc(OC(F)F)c3)ccc2O1)C(F)(F)F` [Compound 30CY, (S)-N-((6-(3-(difluoromethoxy)-5-fluorophenyl)-4-((3-(trifluoro-methyl)phenyl)sulfonyl)-3,4-dihydro-2H-benzo[b][1,4]-oxazin-2-yl)methyl)-3,3,3-trifluoro-2,2-dimethyl-propanamide], the half-maximal effective concentration (EC50) was below 500 nM and the “TR-FRET Assay Max Response” value is reported as “** (The symbol “**” indicates a value in the range of greater than 90 to 150)”.
